According to patent US9579299B2, “CNS pharmaceutical compositions and methods of use” (TARGIA PHARMACEUTICALS, priority 2008, dated 2017):
Read-outs that look alike come from different tables or passages of the source.

Experiments:
[1] = cited from earlier work
[2] = antiparkinsonian drugs; cited from earlier work
[3] = parent drug; cited from earlier work
[4] = in vivo; cited from earlier work
[5] = test system: treated patients; conditions: cited from earlier work; for Psychiatric side-effects: anti-epileptics
[6] = test system: healthy volunteer; experiment: Example 2: volunteer with lower back pain, Soma with neuromodulators; format: in vivo, human
Experimental: A healthy volunteer was prescribed 250 mg two times a day Soma by their family doctor for reduction of lower back pain. […] The volunteer agreed to take Soma during the day together with the neuromodulation treatment. They took Soma in the morning and afternoon together with Pseudoephedrine followed 15 minutes later by Guaifenisin.

[7] = test system: patient; experiment: Example 1: patient with tooth pain, Soma with neuromodulators; format: in vivo, human; conditions: Soma with 60 mg Pseudoephedine, 600 mg Guaifenesin 10 min later
Experimental: A patient had experienced tooth pain. The patient was given the following treatment: at 11:00 a.m.-co-administration of Soma (Carisoprodol) with 60 mg of Pseudoephedine. At 11:10 a.m.-600 mg of Guaifenesin. […] At no time during the treatment did the patient feel somnolent or have any desire to sleep.

[8] = cited from earlier work; remark: listed apart in the source
[9] = test system: subject; experiment: Example 4: Flunitrazepam with pseudoephedrine and Mucinex, subject report
[10] = cited from earlier work; remark: listed apart in the source
[11] = cited from earlier work; remark: listed apart in the source
[12] = stated in words (injection / IV)
[13] = Soma with Pseudoephedrine, Guaifenisin 15 minutes later, two-day regimen
[14] = oral ingestion 75-100 mg/kg in humans

For CN1CCc2cccc3c2[C@H]1Cc1ccc(O)c(O)c1-3 [Apomorphine], the Tmax [1, 12] is listed as “(fast, but injection)” and the Psychiatric side-effects [2] is listed as “Sedation, psychomotor agitation, anxiety,”.
For NCC(CC(=O)O)c1ccc(Cl)cc1 (stereo not shown) [Baclofen], the Half-life ([1]; in vivo) is listed as 1.5 to 4 h and the Tmax ([1]; in vivo) is listed as 0.5 to 1 h.
For CN1[C@@H]2CC[C@H]1C[C@@H](OC(c1ccccc1)c1ccccc1)C2 [Benzatropine], the Half-life ([1]; in vivo) is given as 36 h, the Tmax ([1]; in vivo) is given as 1 to 2 h and the Psychiatric side-effects [2] is given as “Sedation, anxiety, psychosis, delirium,”.
For OC(CCN1CCCCC1)(c1ccccc1)C1CC2C=CC1C2 (stereo not shown) [Biperiden], the Half-life ([1]; in vivo) is given as 18 to 24 h and the Tmax ([1]; in vivo) is given as 1.5 h.
For O=C1CN=C(c2ccccn2)c2cc(Br)ccc2N1 [Bromazepam], the “Elimination Half-Life” value [3] is listed as 10 to 20 h.
For CC(C)C[C@H]1C(=O)N2CCC[C@H]2[C@]2(O)O[C@](NC(=O)[C@@H]3C=C4c5cccc6[nH]c(Br)c(c56)C[C@H]4N(C)C3)(C(C)C)C(=O)N12 [Bromocriptine], the Half-life ([1]; in vivo) is listed as 7 h, the Tmax ([1]; in vivo) is listed as 1 to 2 h and the Psychiatric side-effects [2] is listed as “Sedation, psychomotor agitation, anxiety,”.
For C=CCN1C[C@H](C(=O)N(CCCN(C)C)C(=O)NCC)C[C@@H]2c3cccc4[nH]cc(c34)C[C@H]21 [Cabergoline], the Half-life ([1]; in vivo) is listed as 63 to 69 h, the Tmax ([1]; in vivo) is listed as 0.5 to 4 h and the Psychiatric side-effects [2] is listed as “Sedation, psychomotor agitation, anxiety,”.
In the case of NC(=O)N1c2ccccc2C=Cc2ccccc21 [Carbamazepine], the Elimination Half-Life [4] is listed as “about 12 hours” and the Psychiatric side-effects [5] is listed as “Depression, agitation, sedation, psychosis, cognitive”.
In the case of CCCC(C)(COC(N)=O)COC(=O)NC(C)C (stereo not shown) [Carisoprodol], the Half-life ([1]; in vivo) is given as 2.5 h, the Tmax ([1]; in vivo) is given as 1.5 to 2 h and the sedative side-effect ([6]; Soma 250 mg two times a day alone) is given as “suffered from the sedative side-effect of Soma”. For the same molecule, the back pain [6, 13] was “back pain was effectively reduced”, the sedation reported [6, 13] was “did not feel sedated” and the “sedation or other side-effects reported by patient” value [7] was “without any sedation or other side-effects”. For the same molecule, the “pain reported by patient” value ([7]; tooth pain) was “less pain than prior to the procedure”.
For CNC1=Nc2ccc(Cl)cc2C(c2ccccc2)=[N+]([O-])C1 [Chlordiazepoxide], the “Elimination Half-Life” value [3] is given as 5 to 30 h.
In the case of N#CCCN1C(=O)C(O)N=C(c2ccccc2F)c2cc(Cl)ccc21 (stereo not shown) [Cinolazepam], the “Elimination Half-Life” value [3] is given as 9 h.
For CN1C(=O)CC(=O)N(c2ccccc2)c2cc(Cl)ccc21 [Clobazam], the “Elimination Half-Life” value [3] is given as 12 to 60 h.
In the case of O=C1CN=C(c2ccccc2Cl)c2cc([N+](=O)[O-])ccc2N1 [Clonazepam], the Tmax ([8]; CNS active agent) is given as 240 min, the bioactivity ([8]; CNS active agent) is given as 90% and the “Elimination Half-Life” value [3] is given as 18 to 50 h.
For CN1CCN(C2=Nc3cc(Cl)ccc3Nc3ccccc32)CC1 [Clozapine], the Tmax ([8]; CNS active agent) is given as 150 min.
In the case of CN(C)CCC=C1c2ccccc2C=Cc2ccccc21 [Cyclobenzaprine], the Half-life ([1]; in vivo) is listed as 8 to 37 h, the Tmax ([1]; in vivo) is listed as 1 to 2 h and the Half-life ([1]; in vivo, listed as Flexeril) is listed as 24 to 72 h. The Tmax ([1]; in vivo, listed as Flexeril) was 1 h and the Elimination Half-Life [4] was 1 to 3 days.
In the case of CN1C(=O)CN=C(c2ccccc2)c2cc(Cl)ccc21 [Diazepam], the bioactivity ([8]; CNS active agent) is given as 97%.
For Clc1ccc2c(c1)C(c1ccccc1)=NCc1nncn1-2 [Estazolam], the “Elimination Half-Life” value [3] is listed as 10 to 24 h.
In the case of Fc1ccc(C(c2ccc(F)cc2)N2CCN(C/C=C/c3ccccc3)CC2)cc1 [Flunarizine], the Half-life ([1]; in vivo) is given as 456 h and the Tmax ([1]; in vivo) is given as 1 h.
For CN1C(=O)CN=C(c2ccccc2F)c2cc([N+](=O)[O-])ccc21 [Flunitrazepam], the subject-reported effects ([9]; Flunitrazepam 0.5 mg, 15 minutes later pseudoephedrine 60 mg and Mucinex 600 mg) was “a little “loopy”” and the subject-reported effects ([9]; Flunitrazepam 1.0 mg, at the same time pseudoephedrine 60 mg and Mucinex 600 mg) was “started to feel tranquilized”.
For O=C(O)CCCO [GHB, g-Hydroxybutyric acid], the Tmax ([8]; CNS active agent) is listed as 30 to 120 min, the Tmax ([10]; 25 mg/kg) is listed as “approximately 30 minutes” and the Tmax ([10]; 50 mg/kg) is listed as “around 45 minutes”. For the same molecule, the peak blood levels [10, 14] was 90 to 100 µg/mL, the “time of peak blood levels after ingestion” value [10, 14] was 1 to 2 h and the onset of action ([10]; orally) was at most 15 min.
In the case of NCC1(CC(=O)O)CCCCC1 [Gabapentin, 1-(aminomethyl)-cyclohexylacetic acid], the Psychiatric side-effects [5] is given as “Sedation, agitation, fatigue”.
In the case of CC1=CC(=O)N2CC(=O)N(C)c3ccc(Cl)cc3C2(c2ccccc2)O1 (stereo not shown) [Ketazolam], the “Elimination Half-Life” value [3] is given as 2 h.
For Nc1nnc(-c2cccc(Cl)c2Cl)c(N)n1 [Lamotrigine], the Psychiatric side-effects [5] is listed as “Sedation, depression, agitation, psychosis” and the “Psychosis, % of treated patients” value [5] is listed as “(0.3% of treated patients)”.
For CC[C@@H](C(N)=O)N1CCCC1=O [Levetiracetam], the Psychiatric side-effects [5] is given as “Irritability, sedation and psychosis”.
For CCN(CC)C(=O)N[C@H]1C=C2c3cccc4[nH]cc(c34)C[C@H]2N(C)C1 [Lisuride], the Half-life ([1]; in vivo) is given as 2 h and the Tmax ([1]; in vivo) is given as 1.1 to 1.3 h.
For CN1CCN(/C=C2\N=C3CN=C(c4ccccc4Cl)c4cc([N+](=O)[O-])ccc4N3C2=O)CC1 [Loprazolam], the “Elimination Half-Life” value [3] is listed as 6 to 12 h.
For CN1C(=O)C(O)N=C(c2ccccc2Cl)c2cc(Cl)ccc21 (stereo not shown) [Lormetazepam], the “Elimination Half-Life” value [3] is given as 10 to 12 h.
For CN1CCN=C(c2ccccc2)c2cc(Cl)ccc21 [Medazepam], the “Elimination Half-Life” value [3] is given as 36 to 200 h.
For CCOC(=O)C1(c2ccccc2)CCN(C)CC1 [Meperidine(Pethidine), Meperidine], the Half-life ([1]; in vivo) is listed as 3 to 5 h, the Tmax ([1]; oral) is listed as “oral, up to 1.5 h” and the Tmax [1, 12] is listed as “IV, several min”.
In the case of Cc1cc(C)cc(OCC2CNC(=O)O2)c1 (stereo not shown) [Metaxalone], the Half-life ([1]; in vivo) is given as 5 to 12 h, the Tmax ([1]; in vivo) is given as 3 h and the duration ([11]; in vivo) is given as “four to six hours”.
For CCC(=O)C(CC(C)N(C)C)(c1ccccc1)c1ccccc1 (stereo not shown) [Methadone], the Tmax ([1]; in vivo) is given as 1 to 7.5 h.
In the case of COc1ccccc1OCC(O)COC(N)=O (stereo not shown) [Methocarbamol], the Half-life ([1]; in vivo) is given as 1 to 2 h, the Tmax ([1]; in vivo) is given as 1 to 2 h and the Half-life ([1]; in vivo, listed as Robaxin) is given as 1.14 to 1.24 h. For the same molecule, the Tmax ([1]; in vivo, listed as Robaxin) was 0.5 to 1 h.
In the case of COc1ccc2c(c1)N(C[C@H](C)CN(C)C)c1ccccc1S2 [Methotrimeprazine], the Half-life ([1]; in vivo) is given as 20 h and the Tmax ([1]; in vivo) is given as 1 to 4 h.
In the case of COCCc1ccc(OCC(O)CNC(C)C)cc1 (stereo not shown) [Metoprolol], the Half-life ([1]; in vivo) is listed as 3 to 7 h and the Tmax ([1]; in vivo) is listed as “(fast) up to 1 h”.
For COc1ccc(OC)c(C(O)CNC(=O)CN)c1 (stereo not shown) [Mitodrin], the Tmax ([8]; selected neuromodulators) is given as 15 to 30 min.
For O=C1CN=C(c2ccccc2)c2cc([N+](=O)[O-])ccc2N1 [Nitrazepam], the “Elimination Half-Life” value [3] is given as 15 to 38 h.
For Cc1cc2c(s1)Nc1ccccc1N=C2N1CCN(C)CC1 [Olanzapine], the Tmax ([8]; CNS active agent) is given as 300 to 480 min and the bioactivity ([8]; CNS active agent) is given as 40%.
For Cc1ccccc1C(OCCN(C)C)c1ccccc1 (stereo not shown) [Orphenadrine], the Half-life ([1]; in vivo) is listed as 13 to 20 h and the Tmax ([1]; in vivo) is listed as 2 h.
In the case of CCC1(c2ccccc2)C(=O)NC(=O)NC1=O [Phenobarbital, 5-ethyl-5-phenyl barbituric acid], the Tmax ([8]; CNS active agent) is listed as 120 min.
In the case of CNC[C@H](O)c1cccc(O)c1 [Phenylephrine], the Tmax ([8]; selected neuromodulators) is given as 10 to 15 min and the “duration of anti-hypotensive effect” value ([11]; after a single intravascular injection) is given as “approximately 20 minutes”.
For CCCN[C@H]1CCc2nc(N)sc2C1 [Pramipexole], the Tmax ([1]; in vivo) is listed as 1 h and the Psychiatric side-effects [2] is listed as “Sedation, psychomotor agitation, anxiety,”.
In the case of CCC1(c2ccccc2)C(=O)NCNC1=O [Primidone], the Psychiatric side-effects [5] is listed as “Sedation, mood lability, psychotic symptoms, delirium”.
In the case of CN[C@@H](C)[C@@H](O)c1ccccc1 [Pseudoephedrine], the Tmax ([8]; selected neuromodulators) is given as 30 to 60 min.
For Fc1ccccc1C1=NCC(=S)N(CC(F)(F)F)c2ccc(Cl)cc21 [Quazepam], the “Elimination Half-Life” value [3] is given as 25 to 100 h.
In the case of CCCN(CCC)CCc1cccc2c1CC(=O)N2 [Ropinirole], the Half-life ([1]; in vivo) is given as 6 h, the Tmax ([1]; in vivo) is given as 1 to 2 h and the Psychiatric side-effects [2] is given as “Sedation, psychomotor agitation, anxiety,”.
In the case of CCCC(CCC)C(=O)[O-].[Na+] [Sodium valproate], the Psychiatric side-effects [5] is listed as “Sedation, hallucinations, depressive symptoms, delirium”.
For CN1C(=O)CN=C(C2=CCCCC2)c2cc(Cl)ccc21 [Tetrazepam], the “Elimination Half-Life” value [3] is given as 3 to 26 h.
For Cc1ccsc1C(=CCCN1CCC[C@@H](C(=O)O)C1)c1sccc1C [Tiagabine], the Psychiatric side-effects [5] is given as “Psychosis (0.8% of treated patients), depressive symptoms” and the “Psychosis, % of treated patients” value [5] is given as 0.8%.
In the case of C=CC(N)CCC(=O)O (stereo not shown) [Vigabatrin (GVG), Gamma vinyl GABA], the Tmax ([8]; CNS active agent) is listed as 24 to 60 min.
For CCCN1C[C@H](CSC)C[C@@H]2c3cccc4[nH]cc(c34)C[C@H]21 [pergolide], the Psychiatric side-effects [2] is given as “Sedation, psychomotor agitation, anxiety,”.
